From the OligoGym collection
Several values for one entry are separate records, joined by “and”; a condition that tells them apart may be missing. Equal values may be shown once. After the bases stand the sugars from the 5' end (letter, count) and the backbone: PS all phosphorothioate, else s phosphorothioate and o phosphodiester by linkage. Methylation of C is not given here. e = 2'-O-(2-methoxyethyl) (MOE); k = constrained ethyl (cEt); d = 2'-deoxy (DNA)

Target: SOD1
Details: ASO

For “TCATGAACATGGAATCCATG (sugars e5 d10 e5, PS)”, the target mRNA inhibition (HepG2, 5 µM) was 24% and 19%.

“TCCCCACACCTTCACT (sugars ekddddddddekekee, linkages s1 o1 s8 o3 s2)” was tested, and the target mRNA inhibition (A431, 0.12 µM) was 0%, the target mRNA inhibition (A431, 0.6 µM) was 0% and the target mRNA inhibition (A431, 3 µM) was 7%. It also gave a target mRNA inhibition (A431, 15 µM) of 21%, a target mRNA inhibition (HepG2, 0.222 µM) of 16% and a target mRNA inhibition (HepG2, 0.667 µM) of 34%. It also gave a target mRNA inhibition (HepG2, 2 µM) of 58% and a target mRNA inhibition (HepG2, 6 µM) of 80%.

In the case of “TCCCCACACCTTCACT (sugars kekeddddddddekek, linkages s1 o3 s8 o1 s2)”, the target mRNA inhibition (A431, 0.12 µM) is reported as 3%, the target mRNA inhibition (A431, 0.6 µM) is reported as 44% and the target mRNA inhibition (A431, 3 µM) is reported as 2%. For the same sequence, the target mRNA inhibition (A431, 15 µM) was 8%, the target mRNA inhibition (HepG2, 0.222 µM) was 19% and the target mRNA inhibition (HepG2, 0.667 µM) was 9%. It also gave a target mRNA inhibition (HepG2, 2 µM) of 31% and a target mRNA inhibition (HepG2, 6 µM) of 61%.

“TCCTGGTTCCGAGGACTGCA (sugars e5 d10 e5, PS)” showed a target mRNA inhibition (HepG2, 4 µM) of 24%.

“TCGCCCTTCAGCACGCA (sugars e2 k2 d8 k2 e3, PS)” was tested, and the target mRNA inhibition (HepG2, 4 µM) was 56% and 55%, the target mRNA inhibition (HepG2, 5 µM) was 53% and 64% and the target mRNA inhibition (HepG2, 12 µM) was 71%.

With “TCGGCCACACCATCTTTGTC (sugars e5 d10 e5, PS)” the target mRNA inhibition (HepG2, 5 µM) was 32% and 28%.

In the case of “TCTGAAAAAGTCACACAATT (sugars e5 d10 e5, PS)”, the target mRNA inhibition (HepG2, 5 µM) is reported as 5%.

In the case of “TCTGCTCGAAATTGATGATG (sugars e5 d10 e5, PS)”, the target mRNA inhibition (HepG2, 4 µM) is reported as 14%.

Sequence “TCTGGCAAAATACAGGT (sugars e3 k2 d7 k2 e3, PS)” has a target mRNA inhibition (HepG2, 3 µM) of 0%.

For “TCTGTGATTTAAGTCTG (sugars e2 k2 d8 k2 e3, PS)”, the target mRNA inhibition (HepG2, 5 µM) was 49%.

With “TGAAAAAGTCACACAATTAC (sugars e5 d10 e5, PS)” the target mRNA inhibition (HepG2, 5 µM) was 0%.

With “TGAGAGTGAGATCACAGAAT (sugars e5 d10 e5, PS)” the target mRNA inhibition (HepG2, 5 µM) was 18%.

With “TGATTTAAGTCTGGCAA (sugars e2 k2 d9 k2 e2, PS)” the target mRNA inhibition (HepG2, 5 µM) was 52%.

Work on “TGCTCGAAATTGATGATGCC (sugars e5 d10 e5, PS)” yielded a target mRNA inhibition (HepG2, 4 µM) of 20%.

With “TGCTTCCCCACACCTTC (sugars e3 k2 d7 k2 e3, PS)” the target mRNA inhibition (HepG2, 3 µM) was 43%.

In the case of “TGGATAGAGGATTAAAG (sugars e3 k2 d7 k2 e3, PS)”, the target mRNA inhibition (HepG2, 3 µM) is reported as 23%.

For “TGGGCCGTCGCCCTTCAGCA (sugars e5 d10 e5, PS)”, the target mRNA inhibition (HepG2, 4 µM) was 12%.

Sequence “TGGGCGATCCCAATTAC (sugars e2 k2 d9 k2 e2, PS)” has a target mRNA inhibition (HepG2, 4 µM) of 46%.

For “TGTCAGCAGTCACATTGCCC (sugars e5 d10 e5, PS)”, the target mRNA inhibition (HepG2, 5 µM) was 55% and 49%.
